Data taken from PubChem BioAssay (NCI).
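Briefly, cells in 96-well plates were exposed to five compound concentrations for 48 h, and endpoints were estimated by linear interpolation. Abbreviation: GI50, concentration required for 50% inhibition of growth. TGI marks complete inhibition of growth.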

Assays:
Test in all cases: NCI tumour cell line growth inhibition, 48 h
SF-268 CNS = tested on: SF-268 CNS
T-47D breast = tested on: T-47D breast
SNB-19 CNS = tested on: SNB-19 CNS
EKVX NSCLC = tested on: EKVX NSCLC
HOP-92 NSCLC = tested on: HOP-92 NSCLC
A549 NSCLC = tested on: A549 NSCLC
SW-620 colon = tested on: SW-620 colon
SK-MEL-2 melanoma = tested on: SK-MEL-2 melanoma
UACC-62 melanoma = tested on: UACC-62 melanoma
ACHN renal = tested on: ACHN renal

| Compound | TGI (SF-268 CNS) [µM] | TGI (T-47D breast) [µM] | TGI (SNB-19 CNS) [µM] | TGI (EKVX NSCLC) [µM] | TGI (HOP-92 NSCLC) [µM] | TGI (A549 NSCLC) [µM] | TGI (SW-620 colon) [µM] | TGI (SK-MEL-2 melanoma) [µM] | TGI (UACC-62 melanoma) [µM] | TGI (ACHN renal) [µM] | GI50 (T-47D breast) [µM] | GI50 (HOP-92 NSCLC) [µM] | GI50 (SK-MEL-2 melanoma) [µM] | GI50 (UACC-62 melanoma) [µM] | GI50 (SF-268 CNS) [µM] | GI50 (EKVX NSCLC) [µM] | GI50 (ACHN renal) [µM] | GI50 (SW-620 colon) [µM] |
| --- | --- | --- | --- | --- | --- | --- | --- | --- | --- | --- | --- | --- | --- | --- | --- | --- | --- | --- |
| C=Cc1nc(C#N)c(N)o1 | > 100 | > 100 | > 100 | > 100 | > 100 | > 100 | > 100 | > 100 |  |  |  |  |  |  |  |  |  |  |
| CC(=O)Oc1cc(OC(C)=O)c2c(C)cc(=O)oc2c1 | > 100 |  | > 100 | > 100 |  | > 100 | > 100 | > 100 | > 100 | > 100 |  |  |  |  |  |  |  |  |
| CCOC(=O)c1[nH]c2cccc3c2c1CC[C@H](NC(=O)C(F)(F)F)C3=O | > 100 |  | 46.3 | 0.0531 | 69.4 | > 100 | > 100 | > 100 |  |  |  |  |  |  |  |  |  |  |
| CC1=CCC[C@H]2[C@](C)(CC3=CC(=O)C(Sc4ccccc4)=CC3=O)[C@@H](C)CC[C@]12C |  | 72 | 38.8 | 38.9 | 31.9 | 33.3 | 30.5 | 56.1 | 55.3 | 35.3 | 20.4 | 16.8 | 19.9 |  |  |  |  |  |
| O=[N+]([O-])c1ccc([N+]2=NC(c3ccccc3)=NN(c3ccccc3)C2)cc1 | > 100 |  | > 100 |  | > 100 | > 100 | > 100 | 92.4 | > 100 | > 100 |  |  |  |  |  |  |  |  |
| CC(=O)OC(C)c1cc2c(s1)C(=O)c1c(C(C)OC(C)=O)csc1C2=O (stereo not given) | 13.2 | 5.52 |  | 3.22 | 5.55 | 4.52 | 2.37 | 3.56 | 2.51 | 2.82 |  |  | 1.56 | 1.09 |  |  |  |  |
| COc1cccc(-c2nccc3c(OCc4ccccc4)c(OC)c(OC)cc23)c1 | > 100 |  | > 100 | > 100 | > 100 | > 100 | > 100 | > 100 | > 100 | > 100 |  |  |  |  |  |  |  |  |
| N[C@H](CCC(=O)NCP(=O)(O)O)C(=O)O |  | > 100 | > 100 | > 100 |  | > 100 | > 100 | > 100 | > 100 | > 100 |  |  |  |  |  |  |  |  |
| COC([C@@H](OC(=O)c1ccccc1)[C@H](OC(=O)c1ccccc1)C(O)COC(=O)c1ccccc1)n1cc(C)c(=O)[nH]c1=O (stereo not given in full) | > 100 | > 100 | > 100 | > 100 |  | > 100 | > 100 | 67.1 | 56.3 | > 100 |  |  |  |  |  |  |  |  |
| NC(=Nc1ccccc1)c1ccccc1N | > 100 |  | > 100 | > 100 | > 100 | > 100 | > 100 | > 100 | > 100 | > 100 |  |  |  |  |  |  |  |  |
| CC12CCC(C(=Nc3cc(C(F)(F)F)cc(C(F)(F)F)c3)C1=O)C2(C)C (stereo not given) | 84.5 | 74.3 | > 100 | > 100 |  | > 100 | > 100 | 51.2 | > 100 | > 100 |  |  |  |  |  |  |  |  |
| Cc1c(-c2nnc(-c3ccccc3)o2)c(=O)n(-c2ccccc2)n1C | > 100 |  | > 100 | > 100 | > 100 | > 100 | > 100 | > 100 | > 100 | > 100 |  |  |  |  |  |  |  |  |
| O=C(CSc1nnc(-c2ccc(N=Cc3ccc(Cl)cc3)cc2)o1)Nc1ccc([N+](=O)[O-])cc1 | 46.1 |  | 33.7 | > 100 |  | > 100 | 36.3 | 60.8 | 42.4 | 25.7 |  |  |  |  |  |  |  |  |
| Cc1c2ccccc2c(C)n2c1nc1ccccc12 | 30 | 89.6 | 68.3 | 54.9 | 45.2 | 23.2 | > 100 |  | 23.5 | 45.5 |  |  |  |  |  |  |  |  |
| O=C(C(Cl)=C(N1CCCCC1)N1CCCCC1)C(Cl)Cl | > 100 | > 100 | > 100 | > 100 | > 100 | > 100 | > 100 |  | > 100 | > 100 |  |  |  |  |  |  |  |  |
| Nc1ccc2ccc(-c3ccc[nH]3)nc2n1 | > 100 | > 100 | > 100 | > 100 | > 100 | > 100 | > 100 | > 100 |  | > 100 |  |  |  |  |  |  |  |  |
| CCCCn1c2ccccc2c2ccc3c(c21)C(=O)C=CC3=O | > 100 |  | > 100 |  | > 100 | > 100 | > 100 | > 100 | > 100 | > 100 |  |  |  |  |  |  |  |  |
| Clc1ccc(C2CC(c3cccc(Nc4ccncc4)c3)=NN2c2cc(Cl)cc(Cl)c2)cc1 (stereo not given) | 3.59 |  |  | 3.12 | 2.99 |  | 3.86 |  | 3.29 | 2.98 |  | 1.51 |  | 1.77 | 1.78 | 1.6 | 1.61 | 1.84 |
| CN[C@@H](C)[C@@H](O)c1ccccc1 | > 100 | > 100 | > 100 | > 100 | > 100 | > 100 | > 100 | > 100 |  | > 100 |  |  |  |  |  |  |  |  |
| O=C1C2=C(SCCS2)C(=O)c2c(Sc3ccc(Cl)cc3)c(Sc3ccc(Cl)cc3)c(Sc3ccc(Cl)cc3)c(Sc3ccc(Cl)cc3)c21 | > 100 | > 100 | 88.6 | > 100 |  | > 100 | > 100 | > 100 | 52.8 | > 100 |  |  |  |  |  |  |  |  |
| CNC(=S)NNc1ncnc2c1ncn2-c1ccc(C)cc1 | > 100 | > 100 | > 100 | > 100 | > 100 | > 100 | > 100 | > 100 | > 100 |  |  |  |  |  |  |  |  |  |
| COc1cc2c(cc1OC)[C@@](C)(C(O)C(O)C(C)(C)O)NCC2 (stereo not given in full) | > 100 | > 100 | > 100 | > 100 | > 100 | > 100 |  | > 100 | > 100 | > 100 |  |  |  |  |  |  |  |  |
| COP(=O)(O)C(N)Cc1c[nH]c2ccccc12 (stereo not given) |  | > 100 | > 100 |  | > 100 | > 100 | > 100 | > 100 |  | > 100 |  |  |  |  |  |  |  |  |
